Values quoted from earlier work as cited in patent publication US10201584B1, “Compositions and methods for treating HCV” (AbbVie Inc., priority 2011, dated 2019).

Test system: HCV
Conditions: hepatitis C patients; background statement

NC(=O)c1ncn([C@@H]2O[C@H](CO)[C@@H](O)[C@H]2O)n1 [ribavirin]
suppression of HCV levels / effectiveness of regimen: does not effectively suppress HCV levels
